The text below walks through data of publication PMC4801406, “MTH1 Substrate Recognition—An Example of Specific Promiscuity” (PLoS ONE, 2016).

SMILES strings stand for the structures. “And” between values parts separate entries of the source, which are not always exact repeats. Equal values may be shown once. Read-outs that look alike come from different tables or passages of the source.

The target of assay [1] is T1, Histidine-tagged MTH1 (isoform p18 (M1-V156)) (Homo sapiens, UniProt P36639).
T1 construct: Histidine-tagged MTH1 (isoform p18 (M1-V156)) was immobilized; made in house; host or cells: E. coli Gold BL21(DE3)
As to the kind of experiment: Surface plasmon resonance (SPR) equilibrium binding. Particulars: steady-state, 1:1 Langmuir fit. The method, then: SPR experiments were performed using a Biacore T200 biosensor (GE Healthcare). Series S NTA sensor chips (GE Healthcare) were used. All experiments were carried out using assay buffer containing; 50 mM HEPES pH 7.5, 150 mM NaCl, 0.005% Tween-20 (v/v) and 1% DMSO (v/v) as running buffer. Typically, 10 mM DMSO stocks of compounds were diluted 1:100 (v/v) in 50 mM HEPES pH 7.5, 150 mM NaCl, 0.005% Tween-20 (v/v) to form 100 μM intermediate stocks with final DMSO concentration of 1% (v/v). The intermediate solutions were then subsequently diluted using assay buffer to achieve final concentration range.
Histidine-tagged MTH1 (isoform p18 (M1-V156)) was immobilized as the ligand onto NTA sensor chips using a capture coupling method. Assay buffer was used as immobilization buffer. The nitrilotriacetic (NTA) surface was first activated with a 2-min injection of 500 μM NiCl2 in running buffer before the carboxymethyl dextran surface was activated with a 7-min injection of a 1:1 ratio of 0.4 M EDC and 0.1 M NHS. His-tagged protein was diluted into running buffer to a concentration of 20 μg/mL and immobilized to the surface with a 7-min injection. Remaining activated groups were blocked with two consecutive 60-sec pulses of 0.5 M Ethanolamine. Typical immobilization levels ranged from 500 to 3000 resonance units (RU).
Biacore T200 Evaluation software (GE Healthcare) was used for data processing and analysis. Equilibrium binding analysis was analyzed by plotting steady-state response level vs. compound concentration and fitting to the Langmuir equation (describing simple 1:1 binary interaction).
For orientation: Surface plasmon resonance follows binding to a sensor surface in real time, without labels.

For assay [2], the target named is T2, MTH1 (Homo sapiens, UniProt P36639).
T2 construct: Full length p18 isoform MTH1 (M1-156) with an N-terminal 6-His TEV protease cleavable tag; 6-His (TEV-cleavable) (N, cleaved yes); made in house; host or cells: E. coli Gold BL21(DE3)
As to the kind of experiment: Biochemical IC50 for fragments (Fig 5).

The target in assay [3] is T2, MTH1. The assay is described as follows: 2D-NMR (1H-15N SOFAST-HMQC) titration, Kd from chemical shift perturbations. The assay is classed as binding. Particulars: 100 μM 15N-MTH1, 298 K, pH 7.4. The method, then: Uniformly ^15N-labeled MTH1 was prepared as above with the TB media replaced M9 minimal media supplemented with 5 g/l of IsoGro base powder (^15N, 98%, Isotec) and 2 g/l of glucose. NMR samples were 100 μM in 50mM HEPES pH 7.4, 50 mM NaCl, 1 mM TCEP, 0.1 mM EDTA, 0.02% NaN3 and employing 1% d^6-DMSO as a lock signal. Spectra were acquired at 298 K on a Bruker Avance 600 MHz spectrometer running Topspin 2.1, equipped with a 5mm TCI cryoprobe with Z-axis gradients. The protein was titrated with compound stocks (100 mM in d6-DMSO) to give typical final compound concentrations 0, 50, 100, 198, 396, 593, 984, 1949 and 3824 μM; these were measured using ^1H-^15N-SOFAST-HMQC [17] experiments recorded with […] (t2,t1) complex points (in States-TPPI mode), and 9615x1624 Hz (^1H,^15N) spectral widths, (53.4 ms x 30.8 ms) acquisition times, respectively). The affinity of the compounds was determined via simultaneous nonlinear fitting of fast-exchange chemical shift perturbations (typically 5 amide correlations, employing absolute value of the linear ^1H,^15N chemical shift vector), with the GraFit package against compound concentration using a mass action binding isotherm equation.

The target in assay [4] is T2, MTH1. As to the kind of experiment: MTH1 substrate Km determination (PPiLight pyrophosphate detection; malachite green coupled assay). Particulars: this publication; 0.2 nM MTH1, substrate 0–300 μM. It is filed as biochemical. The protocol:
MTH1 substrate Km determination assay conditions were 0.2 nM MTH1 and a concentration range of substrate from 0–300 μM, diluted in MTH1 reaction buffer (100 mM HEPES pH 7.5, 10 mM MgCl, 1 mM DTT and 0.005% Tween 20). After a reaction time of 15 minutes, pyrophosphate (PPi) released by the reaction was detected using the PPiLight inorganic pyrophosphate assay kit from Lonza and luminescence was monitored using the Perkin Elmer EnVision multimode plate reader. Substrates dGTP and 2-OH—dATP were sourced from Jena Bioscience. Substrates 8-oxo-dGTP, 8-oxo-rGTP, 8-oxo-dATP, 8-oxo-rATP and 2-OH-rATP were sourced from TriLink BioTechnologies.
All oxidised ATP-derived substrates were then tested using an assay format based on the enzymatic hydrolysis of the nucleotide substrate by purified human recombinant MTH1 to form the corresponding monophosphate nucleotide and pyrophosphate. An excess of inorganic pyrophosphatase was added to the assay, which allows the quantification of released inorganic phosphate as a measure of product levels in a coupled enzymatic assay. Inorganic phosphate was measured using an absorbance assay based on malachite green as described by Baykov et al.. The assay buffer in which MTH1, inorganic pyrophosphatase and substrates were diluted consisted of 100mM Tris at pH 7.4, 40 mM NaCl, 10 mM MgCl, 0.005% Tween 20 and 1 mM DTT. The final conditions in the assay during enzymatic incubation were 0.2 nM recombinant human MTH1, a three fold dilution range of 0–300 μM oxidised nucleotide substrate and 0.2U per ml inorganic pyrophosphatase.

Assay [5] deals with T2, MTH1. Particulars: literature value, cited from earlier work.

Turning to `Cc1cc(OCCCO)nc(N)n1` [Compound 6], the Kd (in general, the free concentration of one partner at which half of the binding sites on the other are occupied at equilibrium, for simple one-to-one binding) in assay [1] was 1.7 µM; on MTH1 [3], under 5 µM. On MTH1 [2], the IC50 (commonly the concentration at which inhibition is half-maximal) was 4.5 µM.

Take `CNc1cc(=O)[nH]c(=O)[nH]1` [Compound 7]: the Kd in assay [1] is 0.81 µM; on MTH1 [3], under 5 µM. The IC50 on MTH1 [2] was 1.5 µM.

On to `Nc1ncnc2c1[nH]c(=O)n2[C@H]1C[C@H](O)[C@@H](COP(=O)(O)OP(=O)(O)OP(=O)(O)O)O1` [Compound 8-oxo-dATP, 8-oxo-dATP], for which the Michaelis constant (Km) (in general, the concentration of substrate that gives half-maximal velocity) at MTH1 [4] is 7.6 ± 0.5 µM; on MTH1 [5] (ref [4],[34]), 15.2 µM; at MTH1 [5] (ref [26]) it was 13.9 µM.

As to `Nc1nc2c([nH]c(=O)n2[C@@H]2O[C@H](COP(=O)(O)OP(=O)(O)OP(=O)(O)O)[C@@H](O)[C@H]2O)c(=O)[nH]1` [Compound 8-oxo-rGTP, 8-oxo-rGTP], the Michaelis constant (Km) at MTH1 [4] was 82 ± 45 µM; on MTH1 [5] (ref [4],[34]) it was 55 µM.

The compound `Cn1cnc2c(O)nc(N)nc21` [Compound 2] came in with an IC50 against MTH1 [2] of over 100 µM. Besides, the Kd at MTH1 [3] came to 1100 µM.

In the case of `Cn1c(=O)[nH]c2c(=O)[nH]c(N)nc21` [Compound 1], on MTH1 [2], the 50% inhibitory concentration (IC50) is over 100 µM. The Kd at MTH1 [3] worked out at 400 µM.

In turn, `CN(C)c1nc2c(ncn2C)c(=O)[nH]1` [Compound 4] had an IC50 against MTH1 [2] of over 100 µM. The dissociation constant (Kd) on MTH1 [3] was found to be 2200 µM.

Take `CC(=O)Nc1ccc2c(c1)ncn2C` [Compound 5]: the Kd is over 40 µM in assay [1] and 95 ± 35 µM on MTH1 [3]. The same compound showed an IC50 against MTH1 [2] of over 80 µM.

As to `Nc1ncnc2c1[nH]c(=O)n2[C@@H]1O[C@H](COP(=O)(O)OP(=O)(O)OP(=O)(O)O)[C@@H](O)[C@H]1O` [Compound 8-oxo-rATP, 8-oxo-rATP], the Michaelis-Menten constant (Km) on MTH1 [4] was 241 µM and 240 µM; on MTH1 [5] (ref [4],[34]), 51 µM.

Turning to `CNc1nc2c(ncn2C)c(=O)[nH]1` [Compound 3], the dissociation constant (Kd) turned out to be 24 ± 0.4 µM in assay [1] and 82 ± 6 µM on MTH1 [3]. This compound registered an IC50 against MTH1 [2] of 59 µM.

`Nc1nc2c(ncn2[C@H]2C[C@H](O)[C@@H](COP(=O)(O)OP(=O)(O)OP(=O)(O)O)O2)c(=O)[nH]1` [dGTP]: the Michaelis-Menten constant (Km) was 420 µM on MTH1 [4] and 258 µM on MTH1 [5] (ref [4],[34]).

Regarding `Nc1[nH]c(=O)nc2c1ncn2[C@@H]1O[C@H](COP(=O)(O)OP(=O)(O)OP(=O)(O)O)[C@@H](O)[C@H]1O` [Compound 2-OH-rATP, 2-OH-rATP], the Michaelis-Menten constant (Km) on MTH1 [4] was 13.4 µM and 13 µM; on MTH1 [5] (ref [4],[34]), 4.3 µM.

Regarding `Nc1[nH]c(=O)nc2c1ncn2[C@H]1C[C@H](O)[C@@H](COP(=O)(O)OP(=O)(O)OP(=O)(O)O)O1` [Compound 2-OH-dATP, 2-OH-dATP], the Michaelis constant (Km) is 14 ± 6 µM at MTH1 [4] and 8.3 µM on MTH1 [5] (ref [4],[34]).
